Test results: US9708316B2 (BRISTOL-MYERS SQUIBB COMPANY, priority 2014, dated 2017)

Tests used:
HIS-TGFβR1 T204D = target: T1, HIS-TGFβR1 T204D (Homo sapiens, UniProt P36897, T204D); experiment: HTRF probe-displacement assay, HIS-TGFβR1 T204D; type: binding; settings: read-out: TGFβR1 (μM) IC50
T1 sequence (P36897 34-503 T204D): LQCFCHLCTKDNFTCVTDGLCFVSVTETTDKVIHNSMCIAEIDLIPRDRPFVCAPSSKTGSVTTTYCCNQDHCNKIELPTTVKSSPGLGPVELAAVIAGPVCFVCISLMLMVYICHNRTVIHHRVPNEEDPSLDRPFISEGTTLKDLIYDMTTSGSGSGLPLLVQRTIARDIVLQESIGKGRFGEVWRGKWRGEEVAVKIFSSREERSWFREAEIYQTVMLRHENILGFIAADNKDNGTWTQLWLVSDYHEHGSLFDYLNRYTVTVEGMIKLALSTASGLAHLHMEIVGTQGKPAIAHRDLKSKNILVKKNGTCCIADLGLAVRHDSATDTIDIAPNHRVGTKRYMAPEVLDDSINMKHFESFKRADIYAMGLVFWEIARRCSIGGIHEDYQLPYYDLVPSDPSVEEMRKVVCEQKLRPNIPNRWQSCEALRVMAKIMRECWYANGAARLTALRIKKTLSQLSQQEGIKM

HIS-TGFβR2 WT = HIS-TGFβR2 WT (Homo sapiens, UniProt P37173); experiment: HTRF probe-displacement assay, HIS-TGFβR2 WT; type: binding
Sequence of HIS-TGFβR2 WT (P37173 23-567): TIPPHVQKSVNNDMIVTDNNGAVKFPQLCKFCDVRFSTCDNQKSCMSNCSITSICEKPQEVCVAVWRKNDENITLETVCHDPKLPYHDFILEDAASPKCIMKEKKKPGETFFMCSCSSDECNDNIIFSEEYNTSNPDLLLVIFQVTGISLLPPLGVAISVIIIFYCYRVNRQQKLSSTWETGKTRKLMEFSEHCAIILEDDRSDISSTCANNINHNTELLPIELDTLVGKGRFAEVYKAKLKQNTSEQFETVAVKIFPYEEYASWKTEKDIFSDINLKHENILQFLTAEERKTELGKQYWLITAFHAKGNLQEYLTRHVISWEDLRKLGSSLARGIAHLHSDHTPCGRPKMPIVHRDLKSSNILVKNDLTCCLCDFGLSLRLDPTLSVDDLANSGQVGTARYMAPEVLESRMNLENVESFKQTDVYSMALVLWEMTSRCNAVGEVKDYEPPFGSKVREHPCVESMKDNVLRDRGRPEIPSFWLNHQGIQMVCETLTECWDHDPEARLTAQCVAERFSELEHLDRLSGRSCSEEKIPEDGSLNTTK

| Compound | IC50 (HIS-TGFβR1 T204D) [µM] | IC50 (HIS-TGFβR2 WT) [µM] |
| --- | --- | --- |
| CCOc1cccc(-c2c(-c3ccnc(NC(C)=O)c3)[nH]c3cc(Cl)cnc23)n1 [Example 256, N-(4-(6-Chloro-3-(6-ethoxypyridin-2-yl)-1H-pyrrolo[3,2-b]pyridin-2-yl)pyridin-2-yl)acetamide] | 0.02 | > 15 |
| COc1ccnc2c(-c3cccc(C)n3)c(-c3ccnc(NC(C)=O)c3)[nH]c12 [Example 257, N-(4-(7-Methoxy-3-(6-methylpyridin-2-yl)-1H-pyrrolo[3,2-b]pyridin-2-yl)pyridin-2-yl)acetamide] | 0.003 | 6.21 |
| CCOc1ccc(-c2c(-c3ccnc(NC(C)=O)c3)[nH]c3cc(Cl)cnc23)cn1 [Example 258, N-(4-(6-Chloro-3-(6-ethoxypyridin-3-yl)-1H-pyrrolo[3,2-b]pyridin-2-yl)pyridin-2-yl)acetamide] | 0.002 | 6.29 |
| CC(=O)Nc1cc(-c2[nH]c3cc(Cl)cnc3c2-c2ncccc2C)ccn1 [Example 259, N-(4-(6-Chloro-3-(3-methylpyridin-2-yl)-1H-pyrrolo[3,2-b]pyridin-2-yl)pyridin-2-yl)acetamide] | 0.535 | > 15 |
| CC(=O)Nc1cc(-c2[nH]c3cc(Cl)cnc3c2-c2cccc(C(C)C)n2)ccn1 [Example 260, N-(4-(6-Chloro-3-(6-isopropylpyridin-2-yl)-1H-pyrrolo[3,2-b]pyridin-2-yl)pyridin-2-yl)acetamide] | 0.049 | > 15 |
| CC(=O)Nc1cc(-c2[nH]c3c(C(C)O)ccnc3c2-c2ccc(F)nc2)ccn1 (centres unmarked) [Example 261, N-(4-(3-(6-Fluoropyridin-3-yl)-7-(1-hydroxyethyl)-1H-pyrrolo[3,2-b]pyridin-2-yl)pyridin-2-yl)acetamide] | 0.005 | 0.011 |
| CC(=O)Nc1cc(-c2[nH]c3c(C(C)O)ccnc3c2-c2cccc(F)n2)ccn1 (centres unmarked) [Example 262, N-(4-(3-(6-Fluoropyridin-2-yl)-7-(1-hydroxyethyl)-1H-pyrrolo[3,2-b]pyridin-2-yl)pyridin-2-yl)acetamide] | 0.002 | 0.267 |
| CC(=O)Nc1cc(-c2[nH]c3c(C(C)O)ccnc3c2-c2cccc(Cl)n2)ccn1 (centres unmarked) [Example 263, N-(4-(3-(6-Chloropyridin-2-yl)-7-(1-hydroxyethyl)-1H-pyrrolo[3,2-b]pyridin-2-yl)pyridin-2-yl)acetamide] | 0.001 | 0.279 |
| CC(=O)Nc1cc(-c2[nH]c3c(C(C)O)ccnc3c2-c2ccc(Cl)nc2)ccn1 (centres unmarked) [Example 264, N-(4-(3-(6-Chloropyridin-3-yl)-7-(1-hydroxyethyl)-1H-pyrrolo[3,2-b]pyridin-2-yl)pyridin-2-yl)acetamide] | 0.001 | 0.681 |
| CC(=O)Nc1cc(-c2[nH]c3c(C(C)O)ccnc3c2-c2ccc(F)cn2)ccn1 (centres unmarked) [Example 265, N-(4-(3-(5-Fluoropyridin-2-yl)-7-(1-hydroxyethyl)-1H-pyrrolo[3,2-b]pyridin-2-yl)pyridin-2-yl)acetamide] | 0.004 | 1.05 |
| COc1ccc(-c2c(-c3ccnc(NC(C)=O)c3)[nH]c3c(OC)ccnc23)nc1 [Example 266, N-(4-(7-Methoxy-3-(5-methoxypyridin-2-yl)-1H-pyrrolo[3,2-b]pyridin-2-yl)pyridin-2-yl)acetamide] | 0.005 | > 15 |
| COc1ccnc2c(-c3cccc(C(F)F)n3)c(-c3ccnc(NC(C)=O)c3)[nH]c12 [Example 267, N-(4-(3-(6-(Difluoromethyl)pyridin-2-yl)-7-methoxy-1H-pyrrolo[3,2-b]pyridin-2-yl)pyridin-2-yl)acetamide] | 0.002 | > 15 |
| COc1ccnc2c(-c3ccc(F)cn3)c(-c3ccnc(NC(C)=O)c3)[nH]c12 [Example 268, N-(4-(3-(5-Fluoropyridin-2-yl)-7-methoxy-1H-pyrrolo[3,2-b]pyridin-2-yl)pyridin-2-yl)acetamide] | 0.005 | 2.45 |
| COc1ccc(-c2c(-c3ccnc(NC(C)=O)c3)[nH]c3c(OC)ccnc23)cn1 [Example 269, N-(4-(7-Methoxy-3-(6-methoxypyridin-3-yl)-1H-pyrrolo[3,2-b]pyridin-2-yl)pyridin-2-yl)acetamide] | 0.067 | 1.04 |
| COc1ccc(-c2c(-c3ccnc(NC(C)=O)c3)[nH]c3c(Cl)ccnc23)cn1 [Example 271, N-(4-(7-Chloro-3-(6-methoxypyridin-3-yl)-1H-pyrrolo[3,2-b]pyridin-2-yl)pyridin-2-yl)acetamide] | 0.002 | 0.352 |
| CC(=O)Nc1cc(-c2[nH]c3cc(Br)cnc3c2-c2cccc(C(F)F)n2)ccn1 [Example 272, N-(4-(6-Bromo-3-(6-(difluoromethyl)pyridin-2-yl)-1H-pyrrolo[3,2-b]pyridin-2-yl)pyridin-2-yl)acetamide] | 0.001 | 1.85 |

| Compound | IC50 (HIS-TGFβR1 T204D) [µM] | IC50 (HIS-TGFβR2 WT) [µM] |
| --- | --- | --- |
| COc1ccc(-c2c(-c3ccnc(NC(C)=O)c3)[nH]c3c(CO)ccnc23)cn1 [Example 274, N-(4-(7-(Hydroxymethyl)-3-(6-methoxypyridin-3-yl)-1H-pyrrolo[3,2-b]pyridin-2-yl)pyridin-2-yl)acetamide] | 0.001 | 0.114 |
| CC(=O)Nc1cc(-c2[nH]c3c(CO)ccnc3c2-c2cccc(F)n2)ccn1 [Example 275, N-(4-(3-(6-Fluoropyridin-2-yl)-7-(hydroxymethyl)-1H-pyrrolo[3,2-b]pyridin-2-yl)pyridin-2-yl)acetamide] | 0.003 | 0.637 |
| CC(=O)Nc1cc(-c2[nH]c3c(CO)ccnc3c2-c2cccc(Cl)n2)ccn1 [Example 276, N-(4-(3-(6-Chloropyridin-2-yl)-7-(hydroxymethyl)-1H-pyrrolo[3,2-b]pyridin-2-yl)pyridin-2-yl)acetamide] | 0.001 | 0.503 |
| CC(=O)Nc1cc(-c2[nH]c3c(CO)ccnc3c2-c2ccc(F)nc2)ccn1 [Example 277, N-(4-(3-(6-Fluoropyridin-3-yl)-7-(hydroxymethyl)-1H-pyrrolo[3,2-b]pyridin-2-yl)pyridin-2-yl)acetamide] | 0.006 | 0.01 |
| CC(=O)Nc1cc(-c2[nH]c3c(CO)ccnc3c2-c2ccc(Cl)nc2)ccn1 [Example 278, N-(4-(3-(6-Chloropyridin-3-yl)-7-(hydroxymethyl)-1H-pyrrolo[3,2-b]pyridin-2-yl)pyridin-2-yl)acetamide] | 0.011 | 0.709 |
| CC(=O)Nc1cc(-c2[nH]c3c(CO)ccnc3c2-c2cccc(C)n2)ccn1 [Example 279, N-(4-(7-(Hydroxymethyl)-3-(6-methylpyridin-2-yl)-1H-pyrrolo[3,2-b]pyridin-2-yl)pyridin-2-yl)acetamide] | 0.006 | 9.9 |
| CC(=O)Nc1cc(-c2[nH]c3c(CO)ccnc3c2-c2ccc(C)nc2)ccn1 [Example 280, N-(4-(7-(Hydroxymethyl)-3-(6-methylpyridin-3-yl)-1H-pyrrolo[3,2-b]pyridin-2-yl)pyridin-2-yl)acetamide] | 0.023 | 4.12 |
| COc1cnc2c(-c3cccc(C(F)F)n3)c(-c3ccnc(NC(C)=O)c3)[nH]c2c1 [Example 282, N-(4-(3-(6-(Difluoromethyl)pyridin-2-yl)-6-methoxy-1H-pyrrolo[3,2-b]pyridin-2-yl)pyridin-2-yl)acetamide] | 0.001 | 1.85 |
| COc1cnc2c(-c3cccc(C)n3)c(-c3ccnc(NC(C)=O)c3)[nH]c2c1 [Example 283, N-(4-(6-Methoxy-3-(6-methylpyridin-2-yl)-1H-pyrrolo[3,2-b]pyridin-2-yl)pyridin-2-yl)acetamide] | 0.001 | 1.12 |
| COc1ccc(-c2c(-c3ccnc(NC(C)=O)c3)[nH]c3cc(OC)cnc23)nc1 [Example 284, N-(4-(6-Methoxy-3-(5-methoxypyridin-2-yl)-1H-pyrrolo[3,2-b]pyridin-2-yl)pyridin-2-yl)acetamide] | 0.003 | 5.22 |
| COc1cnc2c(-c3ccc(OC)nc3)c(-c3ccnc(NC(C)=O)c3)[nH]c2c1 [Example 285, N-(4-(6-Methoxy-3-(6-methoxypyridin-3-yl)-1H-pyrrolo[3,2-b]pyridin-2-yl)pyridin-2-yl)acetamide] | 0.002 | 0.016 |
| COc1ccc(-c2c(-c3ccnc(NC(=O)CN4CCOCC4)c3)[nH]c3cccnc23)cn1 [Example 286, N-(4-(3-(6-Methoxypyridin-3-yl)-1H-pyrrolo[3,2-b]pyridin-2-yl)pyridin-2-yl)-2-morpholinoacetamide] | 0.001 | 0.253 |
| COc1ccc(-c2c(-c3ccnc(NC(=O)CN4CCN(C)CC4)c3)[nH]c3cccnc23)cn1 [Example 287, N-(4-(3-(6-Methoxypyridin-3-yl)-1H-pyrrolo[3,2-b]pyridin-2-yl)pyridin-2-yl)-2-(4-methylpiperazin-1-yl)acetamide] | 0.001 | 0.668 |
| COc1ccc(-c2c(-c3ccnc(NC(=O)CN4CCN(CCO)CC4)c3)[nH]c3cccnc23)cn1 [Example 288, 2-(4-(2-Hydroxyethyl)piperazin-1-yl)-N-(4-(3-(6-methoxypyridin-3-yl)-1H-pyrrolo[3,2-b]pyridin-2-yl)pyridin-2-yl)acetamide] | 0.002 | 0.487 |
| COc1ccc(-c2c(-c3ccnc(N)c3)[nH]c3cc(Cl)cnc23)cn1 [Example 289, 4-(6-Chloro-3-(6-methoxypyridin-3-yl)-1H-pyrrolo[3,2-b]pyridin-2-yl)pyridin-2-amine] | 0.002 | 0.794 |
